This data set concerns leukotriene LTD4 aerosol challenge in guinea-pigs. Nature of the data set: guinea-pig aerosol test (LTD4 aerosol challenge, onset of dyspnea). The class given is in vivo. The following applies: for ED50: Cavia porcellus, oral administration, solution in poly(ethylene glycol), predosed generally 1 hour before LTD4 aerosol, read-out: ED50 (protection against LTD4-induced dyspnea). As to the method:
According to this procedure, guinea-pigs are predosed with test compound as a solution in poly(ethylene glycol) (generally 1 hour) before an aerosol challenge of leukotriene LTD4 (starting with 2 ml of a 30 microgram/ml solution) and the effect of the test compound on the average time of leukotriene initiated change in breathing pattern (such as onset of dyspnea) recorded and compared with that in undosed-, control guinea-pigs. Percent protection engendered by a test compound was calculated from the time delay to the onset of dyspnea compared to that for control animals.

For orientation: ED50 means the dose that gives a 50% effect, or the effect in half of the subjects.

With `COc1cc(C(=O)NS(=O)(=O)c2ccccc2C)ccc1Cc1cn(C)c2ccc(C(=O)NC[C@H](C)CC(F)(F)F)cc12` [Example 2, (R)-3-Methoxy-4-[1-methyl-5-(2-methyl-4,4,4-trifluorobutylcarbamoyl)indol-3-ylmethyl]-N-(2-methylphenylsulfonyl)benzamide], the median effective dose (ED50) was 1.1 µmol/kg. Also, the untoward side-effects result (oral, at several multiples of the minimum effective dose) is “without any indication of untoward side-effects”. On to `COc1cc(C(=O)NS(=O)(=O)c2ccccc2C)ccc1Cc1cn(C)c2ccc(C(=O)NCC3CCCC3)cc12` [reference compound], for which the ED50 amounted to 19.2 µmol/kg.

The values above are taken from patent US5286740A, “Carbamoyl derivatives” (Imperial Chemical Industries PLC, priority 1989, dated 1994).
